In PMC4651778 (Journal of structural biology, 2015):

Legend:
[1] = molecular target: Liver Receptor Homolog-1 (LRH-1, NR5A2) (Homo sapiens, UniProt O00482); test: crystal structure; type: binding
DAX-1 140-154 = molecular target: T1, DAX-1 140-154 (Homo sapiens, UniProt P51843); test: SPR
T1 chain: PRQGSILYSLLTSSK

Liver Receptor Homolog-1 (LRH-1, NR5A2), sequence (O00482 294-541): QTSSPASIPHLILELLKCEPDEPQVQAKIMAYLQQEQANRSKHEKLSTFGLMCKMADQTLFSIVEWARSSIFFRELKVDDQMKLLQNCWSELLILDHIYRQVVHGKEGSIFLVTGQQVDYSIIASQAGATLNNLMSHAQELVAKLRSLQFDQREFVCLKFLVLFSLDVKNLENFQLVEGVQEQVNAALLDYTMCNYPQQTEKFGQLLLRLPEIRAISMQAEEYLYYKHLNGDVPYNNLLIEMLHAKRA

Molecule `CCCCCCCCCCCCCCCC(=O)OC[C@@H](COP(=O)(O)O[C@H]1[C@H](O)[C@@H](OP(=O)(O)O)[C@H](OP(=O)(O)O)[C@@H](OP(=O)(O)O)[C@H]1O)OC(=O)CCCCCCCCCCCCCCC` [PIP3] has a Kd [1] of 120 ± 9 nM.

B1: LRH-1 LBD (protein)
chain: SIPHLILELLKCEPDEPQVQAKIMAYLQQEQANRSKHEKLSTFGLMCKMADQTLFSIVEWARSSIFFRELKVDDQMKLLQNCWSELLILDHIYRQVVHGKEGSIFLVTGQQVDYSIIASQAGATLNNLMSHAQELVAKLRSLQFDQREFVCLKFLVLFSLDVKNLENFQLVEGVQEQVNAALLDYTMCNYPQQTEKFGQLLLRLPEIRAISMQAEEYLYYKHLNGDVPYNNLLIEMLHAK
In the case of B1, the Kd (DAX-1 140-154) is reported as 90 nM.
